Data on 7 compounds can be found in patent publication US5051417A, “Indolythiadiazines for treating heart failure” (Les Laboratoires Beecham S.A., priority 1988, dated 1991).

Structures are written as SMILES.

In assay [1] the test system is canine cardiac PDE, CAM. The assay can be described thus: Canine cardiac PDE inhibition, CAM. It counts as biochemical. As to conditions: n in table.
Assay [2] addresses T1, canine cardiac PDE, CGI (Canis lupus familiaris, UniProt A0A8I3NYE0).
T1 construct: CANINE CARDIAC PDE; from tissue; host or cells: dog heart
T1 sequence (A0A8I3NYE0 1-1135): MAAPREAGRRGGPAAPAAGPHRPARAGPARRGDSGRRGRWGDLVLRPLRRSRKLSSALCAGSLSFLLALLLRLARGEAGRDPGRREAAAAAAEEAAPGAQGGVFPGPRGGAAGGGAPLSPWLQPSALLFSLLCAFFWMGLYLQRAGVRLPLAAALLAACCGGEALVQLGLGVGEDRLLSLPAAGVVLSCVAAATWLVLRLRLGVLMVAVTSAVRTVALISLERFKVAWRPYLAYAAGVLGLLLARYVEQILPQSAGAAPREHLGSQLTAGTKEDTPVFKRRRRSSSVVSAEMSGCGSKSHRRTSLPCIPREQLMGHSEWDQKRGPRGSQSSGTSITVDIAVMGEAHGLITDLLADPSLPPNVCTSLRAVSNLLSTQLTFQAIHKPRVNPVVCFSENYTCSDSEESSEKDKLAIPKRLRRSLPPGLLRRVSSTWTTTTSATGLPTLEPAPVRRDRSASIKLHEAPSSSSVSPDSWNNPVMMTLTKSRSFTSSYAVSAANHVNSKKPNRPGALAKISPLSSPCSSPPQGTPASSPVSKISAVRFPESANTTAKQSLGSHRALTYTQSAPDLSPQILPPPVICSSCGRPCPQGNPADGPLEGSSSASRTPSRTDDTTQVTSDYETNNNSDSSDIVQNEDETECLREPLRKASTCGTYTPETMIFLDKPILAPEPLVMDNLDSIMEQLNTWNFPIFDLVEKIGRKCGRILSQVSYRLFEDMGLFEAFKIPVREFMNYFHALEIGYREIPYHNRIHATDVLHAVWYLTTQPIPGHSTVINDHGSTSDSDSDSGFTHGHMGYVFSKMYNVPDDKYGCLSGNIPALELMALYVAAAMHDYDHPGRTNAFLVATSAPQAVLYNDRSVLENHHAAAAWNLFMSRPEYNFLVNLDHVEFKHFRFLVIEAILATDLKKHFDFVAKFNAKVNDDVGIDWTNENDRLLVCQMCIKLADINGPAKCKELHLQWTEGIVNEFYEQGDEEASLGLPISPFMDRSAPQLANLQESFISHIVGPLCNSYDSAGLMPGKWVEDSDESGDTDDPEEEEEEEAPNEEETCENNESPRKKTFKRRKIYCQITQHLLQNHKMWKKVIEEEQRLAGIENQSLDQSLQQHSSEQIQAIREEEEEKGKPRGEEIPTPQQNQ
The assay can be described thus: Canine cardiac PDE inhibition, CGI. It counts as biochemical. As to conditions: n in table.

For assay [3], the system named is anaesthetised dog. The assay is described as follows: Cardiotonic activity in the dog (haemodynamics). The format is in vivo, dog (male Beagle). As to conditions: i.v.
In assay [4] the test system is canine cardiac myofibrillar Ca++-dependent Mg++-ATPase. The assay is described as follows: Measurement of myofibrillar Ca++-dependent Mg++-ATPase activity on canine cardiac myofibrils. It counts as biochemical. As to conditions: pH 7.0, 21° C.; for max (percent change of maximal ATPase activity): pCa=5.47. As to the method: 1. Measurement of myofibrillar Ca++-dependent Mq++-ATPase activity The effect on myofibrillar Ca++sensitivity and on maximal activity of myofibrillar Ca++-dependent Mg++-ATPase was determined on canine cardiac myofibrils. (a) Contractile protein preparation Cardiac myofibrils free of membrane contaminants were prepared from left ventricular tissue of dog hearts using a modification of the method described by SOLARO et al, Biochem. Biophys. Acta, 245, 259-262, (1971). Before centrifugation, the heart homogenate was filtered through gauze. After Triton X-100 treatments, the myofibrillar fraction was washed once by resuspension and centrifugation in 10 volumes of 1 mM EGTA, […], 30 mM imidazole, 2 mM MgCl2, pH 7.0. The pellet was then washed three times in 10 volumes of the same buffer without EGTA. Before the last centrifugation, the suspension of myofibrils was filtered through a stainless steel sieve with 0.25 mm meshes. Myofibrils were kept in pellet overnight. Before use, the pellet was suspended in a small amount of buffer, the protein concentration was determined by the method of BRADFORD M., Anal. Biochem., 1976, 72, 248 and adjusted in order to have a concentration between 6 and 7 mg/ml. (b) Myofibrillar ATPase activity Ca++-dependent myfibrillar ATPase activity was determined at 21° C., pH 7.0, by measuring the rate of release of inorganic phosphate. All assays were performed within 24hrs. of final purification, using the method described by SOLARO and […]., 51. 290-4,(1982). Reaction mixtures (4 ml) containing 0.6-0.7 mg/ml myofibrillar protein, 80mM KCl, 20 mM imidazole, 3 mM MgCl2, 1 mM EGTA, the desired amount of CaCl2, and the indicated concentration of drug or appropriate vehicle were preincubated for 6 min. prior to assay. The amount of CaCl2 was varied between 0 and 0.9 mM and the pCa (-log free Ca++) computed using 2.514×10^6 M^-1 as the apparent affinity of Ca++for EGTA at pH 7.0. Reactions were initiated by the addition of Na2 ATP to final concentration of 2 mM. After an incubation period of 12 min., reactions were quenched by the addition of an equal volume of ice-cold 10% trichloroacetic acid. The protein was pelleted by centrifugation (2000 g, 15 min.) and Pi was assayed in the supernatant fraction using a modification of the method described by LANZETTA et al, Anal. Biochem., 100, 95-97, (1979). The following solutions were prepared: (1) 3.7% ammonium heptamolybdate in 0.12 N H2 SO4 (2) 0.074% malachite green oxalate in 1% polyvinylic alcohol. The colour reagent was prepared by mixing an equal volume of solution (1) and (2) 15 min. before the assay. For the assay, 1,700 μl of 1% H2 SO4 and 1 ml of colour reagent were added to 100 μl of sample. Colour development occurred at room temperature for 30 min. and was quenched by the addition of 200 μl of 1M tri-potassium citrate. The absorbance was measured at 620 millimicrons. The effect of each compound, tested at the indicated concentration, on the relation between pCa and percent activation was determined taking 100% for the maximum ATPase activity obrained with vehicle alone. The effect on Ca++sensitivity was quantified by measuring the shift of the pCa giving 50% of the maximal control ATPase activity. The effect on maximal ATPase activity was expressed as the percent change of ATPase activity for pCa=5.47. Mean effects on myofibrillar ATPase activity were obtained from 1 to 5 preparations, (compounds tested at 2×10^-4 M).

Usually IC50 stands for the midpoint of a concentration-inhibition curve. Read a high IC50 as lower potency. Regarding `CC1SC(=O)NN=C1c1ccc2c(c1)C(=NNc1ccccc1)C(=O)N2` (centres unmarked) [Example 5, 5-(3,6-Dihydro-6-methyl-2-oxo-2H-1,3,4-thiadiazin-5-yl)-1H -indole-2,3-dione 3-phenylhydrazone], the IC50 in assay [1] was above 300000 nM; in assay [2], 130 nM. For the same compound, the AoBF was -25 ± 1% in assay [3] (0.1 mg/kg), -34 ± 5% in assay [3] (0.3 mg/kg), -28 ± 4% in assay [3] (1.0 mg/kg) and -37 ± 2% in assay [3] (3.0 mg/kg). For the same compound, the AoBP in assay [3] (0.1 mg/kg) was -14 ± 6%; in assay [3] (0.3 mg/kg), -12 ± 3%; in assay [3] (1.0 mg/kg), -12 ± 1%; in assay [3] (3.0 mg/kg), -19 ± 3%. The H.R. entry in assay [3] (0.1 mg/kg) is given as “+8 ± 1%”; in assay [3] (0.3 mg/kg) it was “+18 ± 7%”; in assay [3] (1.0 mg/kg), “+19 ± 16%”; in assay [3] (3.0 mg/kg), “+58 ± 0%”. The “dP/dt Max” value in assay [3] (0.1 mg/kg) is listed as “+7 ± 2%”; in assay [3] (0.3 mg/kg), “+24 ± 6%”; in assay [3] (1.0 mg/kg), “+42 ± 16%”; in assay [3] (3.0 mg/kg), “+116 ± 31%”.
Consider `CON=C1C(=O)Nc2ccc(C3=NNC(=O)SC3C)cc21` (centres unmarked) [Example 2, 1,3-Dihydro-5-(3,6-dihydro-6-methyl-2-oxo-2H,1,3,4 thiadiazin-5-yl)-3-methoxyimino-2H-indol-2-one], for which the IC50 in assay [1] was determined as 6900 nM. The IC50 in assay [2] is 1300 nM. For the same compound, in assay [4] (10 μM), the “max (percent change of maximal ATPase activity)” value was “+5 ± 2%” and the “pCa (shift of the pCa giving 50% of the maximal control ATPase activity; Ca++ sensitivity)” value came to 0.24 ± 0.01. In assay [4] (30 μM), the “max (percent change of maximal ATPase activity)” value is on record as “+13 ± 4%” and the “pCa (shift of the pCa giving 50% of the maximal control ATPase activity; Ca++ sensitivity)” value was determined as 0.60 ± 0.11. Besides, in assay [3] (0.1 mg/kg), the AoBF entry is listed as “+8 ± 2%”, the AoBP result is given as “+4 ± 2%”, the H.R. result is given as “+13 ± 8%” and the “dP/dt Max” value is “+31 ± 9%”. In addition, in assay [3] (0.3 mg/kg), the AoBF entry is reported as “+16 ± 1%”, the AoBP is -9 ± 1%, the H.R. entry is recorded as “+26 ± 10%” and the “dP/dt Max” value is listed as “+54 ± 20%”. Also, in assay [3] (1.0 mg/kg), the AoBF result was “+33 ± 5%”, the AoBP is -20 ± 5%, the H.R. entry was “+55 ± 21%” and the “dP/dt Max” value is listed as “+128 ± 56%”.
Turning to `COC(=S)NN=C1C(=O)Nc2ccc(C3=NNC(=O)SC3C)cc21` (centres unmarked) [Example 3, O-Methyl 2-[2,3-dihydro-5-(3,6-dihydro-6-methyl-2-oxo-2H -1,3,4-thiadiazin-5-yl)-2-oxo-1H-indol-3-ylidene]-hydrazine carbothioate], the concentration for half-maximal inhibition (IC50) in assay [1] is above 300000 nM. In addition, the IC50 in assay [2] was found to be 270 nM. Also, in assay [4] (30 μM), the “max (percent change of maximal ATPase activity)” value was “+3 ± 3%” and the “pCa (shift of the pCa giving 50% of the maximal control ATPase activity; Ca++ sensitivity)” value was “+0.33 ± 0.05”. In assay [3] (0.1 mg/kg), the AoBF is given as -30 ± 12%, the AoBP was -14 ± 7%, the H.R. result is reported as “+28 ± 6%” and the “dP/dt Max” value is reported as “+17 ± 6%”. Besides, in assay [3] (0.3 mg/kg), the AoBF was -63 ± 8%, the AoBP is given as -29 ± 6%, the H.R. result is reported as “+54 ± 11%” and the “dP/dt Max” value was “+70 ± 5%”. In addition, in assay [3] (1.0 mg/kg), the AoBF is recorded as -50 ± 12%, the AoBP is listed as -30 ± 1%, the H.R. result is on record as “+93 ± 7%” and the “dP/dt Max” value is recorded as “+126 ± 9%”.
In assay [1], `CC1SC(=O)NN=C1c1ccc2c(c1)C(=NOc1ccccc1)C(=O)N2` (centres unmarked) [Example 11, 1,3,-Dihydro-5-(3,6-dihydro-6-methyl-2-oxo-2H-1,3,4-thiadiazin-5-yl)-3-phenoxyimino-2H-indol-2-one] gave an IC50 above 300000 nM. In assay [2], this compound came in with an IC50 of 680 nM. In addition, in assay [4] (30 μM), the “max (percent change of maximal ATPase activity)” value turned out to be 8 ± 2% and the “pCa (shift of the pCa giving 50% of the maximal control ATPase activity; Ca++ sensitivity)” value is “+0.36 ± 0.05”.
On to `CC1SC(=O)NN=C1c1ccc2c(c1)C(=Cc1ccccc1O)C(=O)N2` (centres unmarked) [Example 17, 1,3-Dihydro-5-(3,6-dihydro-6-methyl-2-oxo-2H-1,3,4-thiadiazin-5-yl)-3-[(2-hydroxyphenyl)methylene]-2H -indol-2-one], for which the IC50 in assay [1] came out at 23000 nM. The IC50 in assay [2] is 430 nM. In addition, in assay [4] (30 μM), the “max (percent change of maximal ATPase activity)” value is recorded as -16 ± 3% and the “pCa (shift of the pCa giving 50% of the maximal control ATPase activity; Ca++ sensitivity)” value is “+0.60 ± 0.07”. For the same compound, in assay [3] (0.3 mg/kg), the AoBF result is on record as “+14 ± 2%”, the AoBP is reported as -8 ± 2%, the H.R. entry was “+9 ± 3%” and the “dP/dt Max” value was “+6 ± 2%”. Further, in assay [3] (1.0 mg/kg), the AoBF entry is on record as “+16 ± 1%”, the AoBP was -7 ± 1%, the H.R. entry was “+22 ± 5%” and the “dP/dt Max” value is recorded as “+35 ± 8%”. Besides, in assay [3] (3.0 mg/kg), the AoBF result was “+18 ± 4%”, the AoBP is -20 ± 7%, the H.R. entry is “+52 ± 13%” and the “dP/dt Max” value is on record as “+81 ± 18%”.
Regarding `CC1SC(=O)NN=C1c1ccc2c(c1)C(=NN)C(=O)N2` (centres unmarked) [Example 7, 5-(3,6-Dihydro-6-methyl-2-oxo-2H-1,3,4-thiadiazin-5-yl)-1H -indole-2,3-dione 3-hydrazone], the concentration for half-maximal inhibition (IC50) in assay [1] was 42000 nM; in assay [2] it was 2300 nM. The “max (percent change of maximal ATPase activity)” value in assay [4] (30 μM) was -3 ± 5%. Besides, in assay [4] (30 μM), the “pCa (shift of the pCa giving 50% of the maximal control ATPase activity; Ca++ sensitivity)” value was “+0.17 ± 0.02”.
Taken in the same sequence, the figures for `CC1SC(=O)NN=C1c1ccc2c(c1)C(=Nc1ccccc1)C(=O)N2` (centres unmarked) [Example 6, 1,3-6-Dihydro-5-(3,6-dihydro-6-methyl-2-oxo-2H-1,3,4-thiadiazin-5-yl)-3-phenylimino-2H-indol-2-one] were above 300000 nM, 1200 nM, -2 ± 6% and “+0.38 ± 0.06”.
